According to US5332733A, “Heterocyclically substituted piperazinoakylbenzoxazine and piperazinoalkylbenzothiazine compounds, processes for preparing them, and medicaments containing them” (Kali-Chemie Pharma GmbH, priority 1990, dated 1994):
Where two headings read alike, the source gives them in different places.

Columns and labels:
histamine-(H1)-receptor = target: T1, histamine-(H1)-receptor (Cavia porcellus, UniProt P31389); experiment: Histamine-(H1)-receptor antagonism in vitro, histamine-induced contractions of isolated ileum; assay type: cell-based, guinea pig (Dunkin Hartley); settings: test substance 10^-6 mole/l, histamine 5 × 10^-6 mole/l
T1 construct: Segments of the ileum 1.5 cm long from Dunkin Hartley guinea pigs; from tissue; host or cells: isolated ileum of Dunkin Hartley guinea pigs
Method: 3. Investigation of Anti-Histamine-(H1) Effect Based on Histamine-(H1)-Receptor Antagonism In Vitro
To investigate the histamine-(H1)-receptor antagonism of the test substances, the inhibiting effect of the substances on histamine-induced contractions of the smooth muscle was determined in vitro on the isolated organ. Isolated strips of organ from the ileum are suitable for this purpose. In an organ bath of physiological saline solution the smooth muscle strips react to the addition of histamine by contracting. […] The extent of regression of the contraction is an indication of the anti-histamine-(H1) activity of the compounds. The investigation was carried out analogously to the method originally described by Magnus (Pfluegers Arch. 102, 123 (1904)).
Procedure for determining the smooth muscle contraction inhibiting effect on isolated guinea pig ileum induced by a 5×10^-6 molar histamine concentration
Segments of the ileum 1.5 cm long from Dunkin Hartley guinea pigs having a body weight of 300 500 g were used for the test. Each strip was placed in an organ bath of 10 ml of physiological saline solution according to Krebs-Henseleit and attached to a conventional apparatus for isotonic measurement of changes in length of the ileum strips (automated Celaster measuring apparatus), so that the tissue was under 1 g of tension. The bath was kept at a pH of 7.4 and gassed with a mixture of 5% CO2 and 95% O2. After an equilibration phase, an isotonic contraction of the tissue was induced by adding histamine in a final concentration of 5×10^-6 mole/liter and washing it out again after a contact time of 30 seconds. Only tissues samples from which three reproducible contractions were obtained at 10 minute intervals were used in the subsequent test. The test substances were then added in a final concentration of 10^-6 mole/liter, and after 30 seconds contact time histamine was again added up to a concentration of 5×10^-6 mole/liter. The resulting contractions were measured over 30 seconds. The tissue was then washed several times over a period of 10 minutes. Histamine was then added again to stimulate a contraction. The resulting contractions were again measured over 30 seconds. The difference between the amplitude of the contraction obtained by histamine addition alone and the amplitude of the contraction obtained in the presence of the test substance was determined and expressed in terms of % inhibition.
The inhibiting effects on the contractions induced by histamine 30 seconds after administration of the test substance and on the contractions induced by the addition of histamine 10 minutes later are listed in the table.

[1] = tested on: passive cutaneous anaphylaxis (PCA); experiment: Inhibition of passive cutaneous anaphylaxis (PCA) in rats; assay type: in vivo, Sprague-Dawley rats; settings: Rattus norvegicus, 1 h, 2 × 10^-5 mole/kg per os, one hour before ovalbumin challenge
Method: (§1) 1. Determining Inhibition of Passive Cutaneous Anaphylaxis (PCA) and Histamine-Induced Anaphylactoid Cutaneous Reaction
The PCA reaction is carried out following the methods described by Goose et al. (J. N. Immunology 16 (1969), 749) and by Martin et al. (Arch. Pharmacol. 316 (1981), 186).
The IgE-rich ovalbumin antiserum used in the test was obtained from immunized Brown-Norway rats. The were immunized with an intraperitoneal injection of a mixture of 100 μg of ovalbumin with a Bordetella pertussis suspension (Vaxicoq™, Manufactured by Institute Merieux, containing 5×10^9 organisms and 1.25 mg Al(OH)3). After 20 days the animals were re-immunized with a further intraperitoneal injection of a solution of 10 μg ovalbumin in 0.5 ml physiological saline solution. After a further four days the blood was removed from the animals and centrifuged. The resulting antiserum was stored at -20° C. until use.
(§2) The inhibition of the passive cutaneous anaphylaxis and of the anaphylactoid cutaneous reaction induced by histamine was determined as follows:
(§3) Sprague-Dawley rats having a body weight of 150-180 g were injected intradermally in one flank with 50 μl of a 1:75 dilution of the IgE-rich ovalbumin antiserum in physiological saline solution to passively sensitize them to ovalbumin.
(§4) 24 hours after sensitization a solution of 8.25 mg/kg of ovalbumin and 26.4 mg/kg of a blue dye (Evans's Blue) was administered to the rats intravenously according to Martin et al. to trigger passive cutaneous anaphylaxis.
(§5) On the day of the experiment the test substances were dissolved in distilled water which contained 1 vol. % dimethylformamide and 1 vol. % of Tween™ 20 (=polyoxyethylene (20) sorbitan monolaurate). One hour before administration of the ovalbumin challenge, each animal was orally administered 2×10^-5 mole/kg of test substance in 0.5 ml of solution. For comparison purposes a control group received only the solvent.
(§6) The edematous anaphylactic (PCA) and anaphylactoid (histamine-induced) reactions caused by the stimulation of the intravenous ovalbumin injection, which manifested themselves by edema formation, swelling and exudation of blue dye, were evaluated 30 minutes after their initiation by the intravenous ovalbumin injection. This was done by visually determining the extent to which the blue dye emerged at the sites of edema formation. The percentage inhibition of anaphylactic and anaphylactoid reactions induced by the test substances in comparison with the reactions of the control animals not treated with any test substance was determined using comparison scales.
(§7) The results obtained using compounds of formula I according to the foregoing test methods are shown in the following Table A. The example numbers given for the compounds of formula I relate to the subsequent preparative examples.

[2] = tested on: PAF-induced aggregation of rabbit blood platelets; experiment: Anti-PAF activity in vitro, PAF-induced platelet aggregation; assay type: cell-based, rabbit (New Zealand hybrids); settings: Oryctolagus cuniculus, test substance 10^-5 mole/l, pH 7.4
Source text: 4. Determination of Anti-PAF Activity In Vitro
PAF (=Platelet Activating Factor) is a phospholipid mediator which has many effects. Activation of platelet aggregation induces protracted broncho-contraction and hyper-reactivity of the air paths.
In this test the effect of the test substances on platelet aggregation induced by adding PAF to a suspension of platelets obtained from rabbit blood is investigated using the method described by Mikashima et al. (Jap. J. Pharmacol. 44 (1987) 387-391).
A suspension of platelets obtained from rabbit blood containing 4×10^9 platelets/ml in a modified Tyrode buffer solution (=Tyrode solution with 1.3 mM/l CaCl2 and 2.5 g/l gelatine added) adjusted to pH 7.4 was used. Tyrode solution is an aqueous solution containing 136.9 mmoles NaCl, 2.68 mmoles KCl, 2.31 mmoles CaCl2, 1.0 mmole MgCl2, 11.9 mmoles NaHCO3, 1.45 mmoles NaH2 PO4 and 5.55 mmoles glucose per liter. The platelets were obtained from 10 ml blood samples from each of three rabbits (New Zealand hybrids, body weight 3-4 kg). For this the blood samples were treated with ethylenediamine tetraacetic acid and washed according to the method of Artley et al. (Brit. J. Hematol. 19 (1970), 7-17). A platelet-rich plasma was then initially separated by centrifuging (20 minutes at 400×g). The blood platelets were separated from the plasma by recentrifuging for 15 minutes at 1,400×g. The platelets remaining as sediment after centrifuging were resuspended in a Tyrode buffer solution (but without calcium). 0.4 mmole of lysine acetylsalicylate was then added, and after 15 minutes the platelets were sedimented again. The sediment was resuspended in the aforementioned modified Tyrode buffer solution, and the number of platelets in the resulting suspension was adjusted to the desired content.
A 40×10^-9 molar PAF solution was used as a reagent. This solution was made from a 1.8×10^-3 molar stock solution in chloroform. For this purpose a 10 μl sample of the stock solution was evaporated to dryness and redissolved in 180 μl of the modified Tyrode solution to which 0.25% of lipid-free bovine serum albumin had been added. From this 10^-5 molar working solutions were then prepared and stored frozen. Samples of these solutions were appropriately diluted for the tests.
To carry out the test 50 μl of the platelet suspension and 10 μl of a 40×10^-5 molar solution of the compound being investigated were added with stirring (1,000 rpm) to 330 μl of the modified Tyrode buffer solution in an aggregation tube provided with a small magnetic stirrer. This corresponds to a final test substance concentration of 10^-5 mole/l. After 90 seconds preincubation time, 10 μl of the PAF preparation were added. The aggregation occurring in the aggregation tubes was measured over 4-5 minutes with the aid of a computerized aggregometer.
The aggregation which occurred in test tubes containing only platelet suspension was evaluated as 0%, whereas the aggregation which occurred in test tubes containing platelet suspension and PAF preparation was evaluated as 100%. The aggregation which still occurred during the inhibition of the PAF induced platelet aggregation due to the addition of the test substances was measured, and the resulting aggregation inhibition was calculated therefrom in %.

[3] = tested on: histamine-induced anaphylactoid cutaneous reaction; experiment: Inhibition of histamine-induced anaphylactoid cutaneous reaction in rats; assay type: in vivo, Sprague-Dawley rats; settings: Rattus norvegicus, 1 h, 2 × 10^-5 mole/kg per os, one hour before ovalbumin challenge
Method: as §1, §2, §3, §4
To determine the histamine-induced anaphylactoid skin reaction, the animals are injected intradermally in the flank opposite to the antiserum administration with 50 μl of a physiological saline solution containing 0.8 mg/ml histamine directly before the intravenous injection of the solution containing the ovalbumin and the blue dye.
as §5, §6, §7

mice = settings: mouse, in vivo, 1440 min
Method: 2. Determination of Minimum Toxic Dose
Maximum doses of 300 mg/kg of the test substance were administered orally to male mice weighing 20-25 g. The animals were observed carefully for 3 hours for toxicity symptoms. In addition, all symptoms and deaths were recorded over a period of 24 hours after administration. Associated symptoms were also observed and recorded. If death or severe toxic symptoms were observed, additional mice were administered increasingly lower doses. The lowest dose which produced death or severe toxic symptoms is given in the following Table B as the minimum toxic dose.

[4] = 0.5 min, after 30 seconds, read-out: % inhibition of histamine-induced ileum contractions after 30 seconds
[5] = 10 min, after 10 minutes (after washing), read-out: % inhibition of histamine-induced ileum contractions after 10 minutes

T1 sequence (P31389 whole entry): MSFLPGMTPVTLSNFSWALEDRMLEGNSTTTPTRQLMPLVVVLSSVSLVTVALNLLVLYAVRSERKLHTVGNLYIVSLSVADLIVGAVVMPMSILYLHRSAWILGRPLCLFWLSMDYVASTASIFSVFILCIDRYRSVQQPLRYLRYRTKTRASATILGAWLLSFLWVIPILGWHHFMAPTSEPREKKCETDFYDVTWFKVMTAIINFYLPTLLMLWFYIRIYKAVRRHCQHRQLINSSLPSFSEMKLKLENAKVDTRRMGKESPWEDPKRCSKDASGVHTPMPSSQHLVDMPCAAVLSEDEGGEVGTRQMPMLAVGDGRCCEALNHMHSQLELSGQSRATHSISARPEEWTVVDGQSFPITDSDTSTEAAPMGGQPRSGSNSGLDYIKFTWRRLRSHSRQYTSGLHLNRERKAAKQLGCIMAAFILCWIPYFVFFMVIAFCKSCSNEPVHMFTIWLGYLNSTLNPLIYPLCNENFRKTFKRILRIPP

SMILES	inhibition at 1 µM (histamine-(H1)-receptor; [4])	inhibition at 1 µM (histamine-(H1)-receptor; [5])	inhibition in vivo at 20 µmol/kg [1]	inhibition at 10 µM [2]	inhibition in vivo at 20 µmol/kg [3]	Minimum toxic dose (mice)
O=C1Nc2ccccc2SC1CCCCN1CCN(c2ccccn2)CC1 (centres unmarked) [Example 17]	–	–	70%	–	35%	–
Cc1ccc(N2CCN(CCCCC3Sc4ccccc4NC3=O)CC2)nc1 (centres unmarked) [Example 13]	42%	15%	55%	–	30%	100 mg/kg
COc1cccc(N2CCN(CCCCC3Sc4ccccc4NC3=O)CC2)n1 (centres unmarked) [Example 16]	30%	27%	50%	–	45%	300 mg/kg
Cc1ccnc(N2CCN(CCCCC3Sc4ccccc4N(C)C3=O)CC2)c1 (centres unmarked) [Example 3, 4-methyl-2-{4-[4-(4-methylpyridin-2-yl)-piperazin-1-yl]butyl}-2H-1,4-benzothiazine-3(4H)-one]	66%	28%	80%	–	55%	–
O=C1Nc2ccccc2SC1CCCCN1CCN(c2ncccn2)CC1 (centres unmarked) [Example 12]	–	–	80%	–	50%	300 mg/kg
Cc1ccnc(N2CCN(CCCCC3Sc4cc(F)ccc4NC3=O)CC2)c1 (centres unmarked) [Example 18]	78%	83%	80%	76%	53%	–
Cc1ccnc(N2CCN(CCCCC3Sc4ccccc4NC3=S)CC2)c1 (centres unmarked) [Example 2, 2-{4-[4-(4-methylpyridin-2-yl)-piperazin-1-yl]butyl}-2H-1,4-benzothiazine-3(4H) -thione]	51%	60%	–	60%	–	> 300 mg/kg

Further lines, with some results ahead:

inhibition at 1 µM (histamine-(H1)-receptor; [4])	inhibition at 1 µM (histamine-(H1)-receptor; [5])	SMILES	inhibition in vivo at 20 µmol/kg [1]	inhibition at 10 µM [2]	inhibition in vivo at 20 µmol/kg [3]	Minimum toxic dose (mice)
38%	45%	CCCCN1C(=O)C(CCCCN2CCN(c3cc(C)ccn3)CC2)Sc2ccccc21 (centres unmarked) [Example 28]	65%	45%	40%	–
16%	72%	Cc1ccnc(N2CCN(CCCCC3Sc4cc(Cl)ccc4NC3=O)CC2)c1 (centres unmarked) [Example 27]	60%	35%	35%	–
42%	36%	Cc1ccnc(N2CCN(CCCC3Sc4cc(C)ccc4NC3=O)CC2)c1 (centres unmarked) [Example 10]	70%	74%	35%	–
70%	86%	Cc1ccnc(N2CCN(CCCCC3Oc4ccc(C)cc4NC3=O)CC2)c1 (centres unmarked) [Example 24]	80%	–	60%	–
50%	32%	Cc1ccnc(N2CCN(CCCCC3Sc4cc(O)ccc4NC3=O)CC2)c1 (centres unmarked) [Example 25]	50%	–	15%	–
70%	83%	Cc1ccnc(N2CCN(CCCCC3Oc4ccc(Cl)cc4NC3=O)CC2)c1 (centres unmarked) [Example 23]	–	–	–	–
50%	89%	Cc1ccnc(N2CCN(CCCCC3Sc4cc(C)c(C)cc4NC3=O)CC2)c1 (centres unmarked) [Example 21]	78%	37%	55%	–
60%	42%	COc1ccc2c(c1)SC(CCCCN1CCN(c3cc(C)ccn3)CC1)C(=O)N2 (centres unmarked) [Example 19, 7-methoxy-2-{4-[4-(4-methylpyridin-2-yl)-piperazin-1-yl]-butyl}-2H-1,4-benzothiazine-3(4H)-one]	80%	–	60%	–
